Laboratory results reported in BindingDB's records for patent US20240336593 (Lnnovstonetherapeutics, 2024).
pIC50: −log10 of the molar value.

target: Protein arginine N-methyltransferase 5 (Homo sapiens, UniProt O14744); assay: Test on the inhibitory activity of the compounds of the invention against PRMT5 enzyme by radioisotopic method
Description: Test method: A 1× enzyme reaction buffer (10 mM Tris 8.0 (Sigma, Cat. No. T2694-1L), 0.01% Tween-20 (Sigma, Cat. No. P2287-100 ML), 1 mM DTT (Sigma, Cat. No. D0632-10G)) was prepared. […] SAM (PerkinElmer, Cat. No. NET155V001MC) were added to the 1×enzyme reaction buffer, to prepare a 25/15× mixed solution (PRMT5 final concentration: 5 nM, [3H] SAM final concentration: 0.3 μM). […] 25 µL of the reaction mixture was transferred into a FlashPlate (Streptavidin FlashPlate HTS PLUS, High Capacity, 384-well, Perkin Elmer, Cat. No. SMP410A001PK), and incubated at room temperature for 1 h. After washed three times with distilled water containing 0.1% Tween-20, the microplate was read on a MicroBeta reader for CPM data (Counts Per Minute). […] Then the inhibition rate Inh % (Y) corresponding to each concentration (X) was input in EXCEL, and the IC50 value (the half maximal inhibitory concentration) of each compound was calculated with the XLfit plug-in according to the built-in four-parameter fitting equation Y=Bottom+(Top-Bottom)/(1+(IC50/X)[…]).

Protein arginine N-methyltransferase 5, sequence (O14744 whole entry): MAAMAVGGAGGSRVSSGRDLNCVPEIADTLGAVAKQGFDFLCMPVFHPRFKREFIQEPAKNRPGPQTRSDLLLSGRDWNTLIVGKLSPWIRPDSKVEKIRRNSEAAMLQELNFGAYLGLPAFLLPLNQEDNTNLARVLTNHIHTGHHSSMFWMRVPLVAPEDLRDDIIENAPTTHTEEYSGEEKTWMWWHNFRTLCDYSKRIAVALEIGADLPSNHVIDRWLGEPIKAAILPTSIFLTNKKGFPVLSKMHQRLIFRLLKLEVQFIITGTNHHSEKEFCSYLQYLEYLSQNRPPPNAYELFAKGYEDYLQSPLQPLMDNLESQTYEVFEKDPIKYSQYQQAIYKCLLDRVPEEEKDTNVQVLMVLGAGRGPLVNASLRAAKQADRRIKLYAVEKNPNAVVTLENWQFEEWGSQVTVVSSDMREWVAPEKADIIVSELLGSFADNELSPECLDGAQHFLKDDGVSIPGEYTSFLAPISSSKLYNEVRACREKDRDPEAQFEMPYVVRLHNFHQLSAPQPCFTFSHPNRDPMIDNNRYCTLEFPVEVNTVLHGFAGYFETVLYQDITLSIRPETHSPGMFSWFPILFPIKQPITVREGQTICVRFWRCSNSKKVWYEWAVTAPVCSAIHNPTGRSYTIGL

pIC50, > 7.00:
Cc1cccc(Nc2cc(N3CC[C@H](N4CCc5ccccc5C4)[C@@H](O)C3)ncn2)c1 (relative stereo) [US20240336593, Example 34]
CN1CCC(Nc2cc(C(=O)N3CC[C@H](N4CCc5ccccc5C4)[C@@H](O)C3)ncn2)CC1 (relative stereo) [US20240336593, Example 100]
COc1ccccc1Nc1cc(C(=O)N2CC[C@H](N3CCc4ccccc4C3)[C@@H](O)C2)ncn1 (relative stereo) [US20240336593, Example 105]
O=C(c1cc(NC2CCN(CC(F)(F)F)CC2)ncn1)N1CC[C@H](N2CCc3ccccc3C2)[C@@H](O)C1 (relative stereo) [US20240336593, Example 121]
O=C(c1cc(NC2CCOCC2)ncn1)N1CC[C@H](O)[C@@H](N2CCc3ccccc3C2)CC1 (relative stereo) [US20240336593, Example 128]
CN1CCC(Nc2cc(C(=O)N3CC[C@H](O)[C@@H](N4CCc5ccccc5C4)CC3)ncn2)CC1 (relative stereo) [US20240336593, Example 129]
CS(=O)(=O)N1CCC(Nc2cc(C(=O)N3CC[C@H](O)[C@@H](N4CCc5ccccc5C4)CC3)ncn2)CC1 (relative stereo) [US20240336593, Example 130]
CS(=O)(=O)c1ccc(Nc2cc(C(=O)N3CC[C@H](N4CCc5ccccc5C4)[C@@H](O)C3)ncn2)cc1 (relative stereo) [US20240336593, Example 132]
CS(=O)(=O)c1cccc(Nc2cc(C(=O)N3CC[C@H](N4CCc5ccccc5C4)[C@@H](O)C3)ncn2)c1 (relative stereo) [US20240336593, Example 133]
O=C(c1cc(NC2CCS(=O)(=O)CC2)ncn1)N1CC[C@H](N2CCc3ccccc3C2)[C@@H](O)C1 (relative stereo) [US20240336593, Example 135]
O=C(c1cc(NC2CCNCC2)ncn1)N1CC[C@H](N2CCc3ccccc3C2)[C@@H](O)C1 [US20240336593, Example 112]
O=C(c1cc(NC2CCN(CCO)CC2)ncn1)N1CC[C@H](N2CCc3ccccc3C2)[C@@H](O)C1 [US20240336593, Example 122]
N#CCC(=O)N1CCC(Nc2cc(C(=O)N3CC[C@H](N4CCc5ccccc5C4)[C@@H](O)C3)ncn2)CC1 [US20240336593, Example 143]
CC(=O)N1CCC(Nc2cc(C(=O)N3CC[C@@H](N4CCc5ccccc5C4)[C@H](O)C3)nc(-c3cn[nH]c3)n2)CC1 [US20240336593, Example 145]
CO[C@H]1C[C@@H](Nc2cc(C(=O)N3CC[C@@H](N4CCc5ccccc5C4)[C@H](O)C3)nc(-c3ccccc3)n2)C1 [US20240336593, Example 146]
O=C(c1cc(NCC(F)F)nc(-n2ccnc2)n1)N1CCC(N2CCc3ccccc3C2)[C@H](O)C1 (some centres not stated) [US20240336593, Example 147]
COCCCCNc1cc(C(=O)N2CC[C@@H](N3CCc4ccccc4C3)[C@H](O)C2)nc(-c2ccccc2)n1 [US20240336593, Example 148]
